In PubChem BioAssay (NCI):
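Following 48 hours of exposure in 96-well plates, responses at five concentrations were used to interpolate endpoints linearly. Abbreviation: GI50, concentration required for 50% inhibition of growth. The concentration for full growth arrest is given as TGI.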

Assays:
Experiment in all cases: NCI tumour cell line growth inhibition, 48 h
M14 melanoma = system: M14 melanoma
NCI-H226 lung = system: NCI-H226 lung
MOLT-4 leukemia = system: MOLT-4 leukemia
786-0 renal = system: 786-0 renal
TK-10 renal = system: TK-10 renal
CAKI-1 renal = system: CAKI-1 renal
SF-268 CNS = system: SF-268 CNS
SF-539 CNS = system: SF-539 CNS
MCF7 breast = system: MCF7 breast
HCT-15 colon = system: HCT-15 colon

Compound	GI50 (M14 melanoma)	TGI (M14 melanoma)	GI50 (NCI-H226 lung)	TGI (NCI-H226 lung)	GI50 (MOLT-4 leukemia)	TGI (MOLT-4 leukemia)	GI50 (786-0 renal)	TGI (786-0 renal)	GI50 (TK-10 renal)	TGI (TK-10 renal)	GI50 (CAKI-1 renal)	TGI (CAKI-1 renal)	GI50 (SF-268 CNS)	TGI (SF-268 CNS)	GI50 (SF-539 CNS)	TGI (SF-539 CNS)	GI50 (MCF7 breast)	TGI (MCF7 breast)	GI50 (HCT-15 colon)	TGI (HCT-15 colon)
N#CSc1c[nH]c2cccc(/C=C/C(=O)/C=C(/C=C/c3cccc4[nH]cc(SC#N)c34)OB(F)F)c12	0.558 µM	3.08 µM	2.21 µM	5.9 µM	0.302 µM	3.14 µM	0.344 µM	2.06 µM	0.961 µM	5.94 µM	0.887 µM	8.62 µM	1.07 µM	6.44 µM	1.18 µM	4.27 µM	0.459 µM	3.63 µM	0.315 µM	1.49 µM
Cn1c2ccccc2c2c(-c3ccccc3)[n+]3ccncc3nc21	> 100 µM	> 100 µM	> 100 µM	> 100 µM	> 100 µM	> 100 µM	> 100 µM	> 100 µM	> 100 µM	> 100 µM	> 100 µM	> 100 µM	51.3 µM	> 100 µM	48.3 µM	> 100 µM	63.6 µM	> 100 µM	> 100 µM	> 100 µM
CC[C@]1(O)C[C@@H]2CN(CCc3c([nH]c4ccccc34)[C@@](C(=O)OC)(c3cc4c(cc3OC)N(C)[C@H]3[C@@](O)(C(=O)OC)[C@H](OC(C)=O)[C@]5(CC)C=CCN6CC[C@]43[C@@H]65)C2)C1	< 0.01 µM	4.31 µM		17.7 µM	< 0.01 µM	21.3 µM	< 0.01 µM	14.5 µM	6.02 µM	26.9 µM	< 0.01 µM	4.65 µM	< 0.0281 µM	19.5 µM	< 0.01 µM	< 0.01 µM	< 0.01 µM	32.3 µM	< 0.0116 µM	14.6 µM
O/N=C/C1c2ccccc2-c2ccccc21		32.7 µM		33.6 µM		52.6 µM		21.9 µM		34.9 µM		33.2 µM		37.6 µM		31 µM		33.7 µM		40.2 µM
Cc1ccc2c(c1)[n+]([O-])c(N)n[n+]2[O-]		> 100 µM		> 100 µM		> 100 µM		> 100 µM		> 100 µM		> 100 µM		> 100 µM		> 100 µM		> 100 µM		> 100 µM
O=C1CCCCN1CCCCC#Cc1ccccc1C#Cc1ccc([N+](=O)[O-])cc1	5.16 µM	19.3 µM	5.03 µM	22.1 µM	2.79 µM	9.22 µM	8.41 µM	79 µM	7.72 µM	30.5 µM	2.93 µM	15 µM	11.7 µM	27.3 µM	3.13 µM	12.7 µM	1.38 µM	3.65 µM	1.5 µM	9.89 µM
NC(=O)c1ccc(I)c(N)c1	> 100 µM	> 100 µM	> 100 µM	> 100 µM	> 100 µM	> 100 µM	> 100 µM	> 100 µM	> 100 µM	> 100 µM	> 100 µM	> 100 µM	> 100 µM	> 100 µM	> 100 µM	> 100 µM	> 100 µM	> 100 µM	> 100 µM	> 100 µM
COc1ccc(NC2=CC(=O)C(=O)c3ccccc32)nn1		0.668 µM		5.5 µM		1.76 µM		3.76 µM		9.92 µM		6.24 µM		6.95 µM		2.2 µM		2.14 µM		2.51 µM
Nc1cc(N)c2nc(-c3ccccc3)c(Nc3ccc(Cl)c(Cl)c3)nc2c1	14.7 µM	60 µM	17.5 µM	37.6 µM	4.05 µM	> 100 µM	14.7 µM	37 µM	13.7 µM	30.1 µM	13.5 µM	29.6 µM	12 µM	28.6 µM	17.1 µM	35.3 µM	4.96 µM	21.1 µM	21.2 µM	> 100 µM
O=C(N/N=C/c1ccccc1O)c1ccccc1Nc1ccnc(C(F)(F)F)c1	0.497 µM	3.76 µM	1.08 µM	12.1 µM	0.28 µM	> 32.3 µM	0.46 µM	9.26 µM	0.467 µM	> 100 µM	0.337 µM	10.3 µM	0.448 µM	> 89.3 µM	0.545 µM	11.3 µM	0.35 µM	29.2 µM	0.177 µM	> 100 µM
C=CC(=O)N1CC2(CCN(c3nc(OC4CCN(CCCOC)CC4)nc4c(OCC(F)(F)F)c(-c5c(C)ccc6[nH]ncc56)c(C5CC5)cc34)CC2)C1	2 µM	3.97 µM	3.66 µM	16.5 µM	1.67 µM	6.06 µM	4.4 µM	18.2 µM	3.73 µM	14.3 µM	4.15 µM	15.2 µM	3.75 µM	13.6 µM	1.65 µM	3.07 µM	1.67 µM	3.37 µM	1.66 µM	3.21 µM
Oc1ccc(NCc2nc3ccccc3[nH]2)cc1	> 100 µM	> 100 µM	> 100 µM	> 100 µM	> 100 µM	> 100 µM	74.5 µM	> 100 µM	> 100 µM	> 100 µM	> 100 µM	> 100 µM	35.3 µM	> 100 µM	51.7 µM	> 100 µM	32.8 µM	> 100 µM	> 100 µM	> 100 µM
COc1ccc(/C=C/c2nccc3ccccc23)cc1OC		> 10 µM		> 10 µM		> 10 µM		> 10 µM		> 10 µM		> 10 µM		> 10 µM		> 10 µM		> 10 µM		> 10 µM
O=C1c2cc(Cl)ccc2S(=O)(=O)c2c(NCCCNCCO)nc3ccccc3c21	1.95 µM	4.9 µM	10.1 µM	22.7 µM	1.82 µM	5.63 µM	1.71 µM	3.34 µM	1.21 µM	2.46 µM	1.18 µM	2.4 µM	1.7 µM	4.37 µM	1.6 µM	3.13 µM	1.52 µM	3.71 µM	0.926 µM	2.35 µM
